Source: patent US5952349A, “Muscarinic antagonists for treating memory loss” (Schering Corporation, priority 1997, dated 1999)
Like-named read-outs stand apart in the source and are kept apart here.

What was measured:
[1] = target: T1, cloned human m1 muscarinic receptor (Homo sapiens, UniProt P11229); assay: Muscarinic binding activity: inhibition of 3H-QNB binding, m1
T1 construct: expressed in transfected cells; host or cells: CHO cells, stably transfected (membranes)
T1 sequence (P11229 1-460): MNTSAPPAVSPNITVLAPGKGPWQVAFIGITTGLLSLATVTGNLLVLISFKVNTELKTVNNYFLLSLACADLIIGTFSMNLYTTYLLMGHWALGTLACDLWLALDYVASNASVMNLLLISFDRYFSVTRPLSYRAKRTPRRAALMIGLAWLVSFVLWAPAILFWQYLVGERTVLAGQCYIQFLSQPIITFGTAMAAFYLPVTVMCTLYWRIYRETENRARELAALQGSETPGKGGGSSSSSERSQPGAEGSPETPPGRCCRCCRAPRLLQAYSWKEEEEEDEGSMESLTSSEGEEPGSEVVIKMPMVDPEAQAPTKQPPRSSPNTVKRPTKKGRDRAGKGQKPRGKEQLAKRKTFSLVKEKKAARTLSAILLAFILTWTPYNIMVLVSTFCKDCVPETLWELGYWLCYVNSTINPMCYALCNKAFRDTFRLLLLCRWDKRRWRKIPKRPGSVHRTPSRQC

[2] = target: T2, cloned human m2 muscarinic receptor (Homo sapiens, UniProt P08172); assay: Muscarinic binding activity: inhibition of 3H-QNB binding, m2 (and m2 selectivity); conditions: for m2 Selectivity Ratio (Ki,m1/Ki,m2): Ki for m1 divided by Ki for m2, higher = greater m2 selectivity
T2 construct: expressed in transfected cells; host or cells: CHO cells, stably transfected (membranes)
T2 sequence (P08172 1-466): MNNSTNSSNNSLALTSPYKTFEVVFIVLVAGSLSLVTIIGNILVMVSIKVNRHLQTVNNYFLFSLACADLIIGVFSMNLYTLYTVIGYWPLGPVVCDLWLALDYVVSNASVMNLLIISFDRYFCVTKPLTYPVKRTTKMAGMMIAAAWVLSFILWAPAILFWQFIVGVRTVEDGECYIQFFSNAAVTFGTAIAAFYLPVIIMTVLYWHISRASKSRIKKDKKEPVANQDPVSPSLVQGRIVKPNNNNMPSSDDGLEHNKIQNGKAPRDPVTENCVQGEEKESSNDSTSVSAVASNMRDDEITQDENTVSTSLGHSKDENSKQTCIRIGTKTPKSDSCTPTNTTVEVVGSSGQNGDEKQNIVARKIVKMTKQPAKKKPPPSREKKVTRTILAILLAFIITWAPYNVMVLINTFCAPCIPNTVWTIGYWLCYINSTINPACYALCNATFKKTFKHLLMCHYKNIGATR

[3] = target: T3, cloned human m4 muscarinic receptor (Homo sapiens, UniProt P08173); assay: Muscarinic binding activity: inhibition of 3H-QNB binding, m4 (and m4 selectivity); conditions: for m4 Selectivity Ratio (Ki,m4/Ki,m2): Ki for m4 divided by Ki for m2
T3 construct: expressed in transfected cells; host or cells: CHO cells, stably transfected (membranes)
T3 sequence (P08173 1-479): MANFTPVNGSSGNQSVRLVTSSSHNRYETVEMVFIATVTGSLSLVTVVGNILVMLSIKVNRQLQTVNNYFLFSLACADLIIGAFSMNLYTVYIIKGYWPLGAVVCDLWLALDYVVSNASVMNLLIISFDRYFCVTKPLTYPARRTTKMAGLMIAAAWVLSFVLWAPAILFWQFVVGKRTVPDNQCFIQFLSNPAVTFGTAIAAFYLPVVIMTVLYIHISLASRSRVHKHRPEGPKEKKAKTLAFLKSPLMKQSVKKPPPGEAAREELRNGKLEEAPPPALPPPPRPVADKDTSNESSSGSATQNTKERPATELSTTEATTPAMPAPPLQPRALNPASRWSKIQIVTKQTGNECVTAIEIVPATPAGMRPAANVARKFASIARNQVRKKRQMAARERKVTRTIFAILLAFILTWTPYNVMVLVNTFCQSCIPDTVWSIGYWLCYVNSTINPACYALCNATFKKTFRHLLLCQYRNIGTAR

[4] = system: m2 muscarinic; conditions: Baumgold et al., Eur. J. of Pharmacol., 251, (1994) 315-317; cited from earlier work
[5] = 3H-QNB binding, membranes of transfected CHO cells, 25° C., 90 minutes, pH 7.4, read-out: Ki, m1
[6] = 3H-QNB binding, membranes of transfected CHO cells, 25° C., 90 minutes, pH 7.4, read-out: Ki, m2
[7] = 3H-QNB binding, membranes of transfected CHO cells, 25° C., 90 minutes, pH 7.4, read-out: Ki, m4

| SMILES | Ki [1, 5] [nM] | Ki [2, 6] [nM] | m2 Selectivity Ratio (Ki,m1/Ki,m2) [2] | Ki [3, 7] [nM] | m4 Selectivity Ratio (Ki,m4/Ki,m2) [3] | m2 muscarinic antagonist selectivity [4] | Ki [1] [nM] | Ki [2] [nM] | Ki [3] [nM] |
| --- | --- | --- | --- | --- | --- | --- | --- | --- | --- |
| N#CN(c1ccc(S(=O)(=O)c2ccc3c(c2)OCO3)cc1)C1CCN(C2CCCCC2)CC1 [Example 2AC] | 10 | 0.44 | 22.7 | 1.6 | 3.6 | – | – | – | – |
| CC(=O)Nc1ccc([S+]([O-])c2ccc(N(C#N)C3CCN(C4CCCCC4)CC3)cc2)cc1 (stereo not shown) [Example 2AM] | 212 | 13.7 | 15.5 | 41.4 | 3.0 | – | – | – | – |
| C[C@H]1CC[C@@H]2N(C1)C[C@H]1[C@@H]3C[C@H]4[C@@H](CC(=O)[C@H]5C[C@@H](Cl)CC[C@@]54C)[C@@H]3CC[C@H]1[C@]2(C)O [3-α-chloroimperialine] | – | – | – | – | – | highly selective m2 muscarinic antagonist | – | – | – |
| COc1ccc(S(=O)(=O)c2ccc(N(C)C3CCN(C4CCCCC4)CC3)cc2)cc1 [Example 2G] | – | – | 18.8 | – | 3.3 | – | 285 | 15.2 | 50 |
| N#CN(c1ccc(S(=O)(=O)C2CCCCC2)cc1)C1CCN(C2CCCCC2)CC1 [Example 2AK] | 232 | 18.8 | 17.2 | 25.5 | 1.4 | – | – | – | – |
| C=CCN(c1ccc(S(=O)(=O)c2ccc(OC)cc2)cc1)C1CCN(C2CCCCC2)CC1 [Example 2I] | – | – | 12.7 | – | 2.7 | – | 47.1 | 3.7 | 10.1 |
| COc1ccc([S+]([O-])c2ccc(N(C#N)C3CCN(C4CCCCC4)CC3)cc2)cc1 (stereo not shown) [Example 2E] | 189 | 9 | 21.0 | 39.3 | 4.4 | – | – | – | – |
